In patent US5354843A, “Flanking peptides of calcitonin and processes for their manufacture” (Ciba-Geigy Corporation, priority 1988, dated 1994):

Experiment: isoelectric point
Type: physicochemical
Description: FAB-MS: MH^+ 6220 (calculated molecular weight: 6220), isoelectric point: 4.2 (calculated: 4.04).

human procalcitonin amino-terminal flanking peptide [PCATFP]
isoelectric point: 4.2
